Test system: T1, wild-type human NPC1
T1 construct: expressed in transfected cells; host or cells: HEK-293S GnTI- cells (ATCC, CRL-3022), PEI transfection
Experiment: Cross-linking of P-X to NPC1 in intact HEK-293S GnTI- cells overexpressing NPC1
Type: cell-based
Details: for inhibition of P-X cross-linking to WT NPC1 in intact cells: 0.3 μM P-X and 3 μM competitor, 1 h at 37 °C
Description: pNPC1 encoding wild-type human NPC1 (amino acids 1–1278) followed sequentially by three tandem copies of the Flag epitope tag ([…]) was constructed into pcDNA3.1. Expression is achieved with the cytomegalovirus (CMV) promoter. Point mutations were introduced into the coding region of pNPC1 by site-directed mutagenesis using the QuikChange II XL Site-Directed Mutagenesis Kit (Agilent Technologies, Santa Clara, CA) and primers which are indicated in Supplementary Table 2. The coding region of each plasmid was sequenced to ensure integrity of the construct.
For cross-linking of P-X to NPC1 and mutants in intact cells, the mammalian HEK-293S GnTI^- cells (ATCC, CRL-3022) overexpressing NPC1 and mutants were set up in 500 mL of freestyle medium with 2% FCS at a density of 2 × 10^6 cells per ml. The cells were transfected with 0.5 mg of the indicated plasmid using PEI (Polysciences) as the transfection agent. After 48 h, cell culture was aliquoted to 10 cm dishes. Each dish received a direct addition of DMSO (final concentration, 0.2%) containing 0.3 μM P-X and 3 μM of various competitor compounds as described in the figure legends. After incubation for 1 h at 37 °C in the dark and without a change of media, the cells were irradiated for 10 min at room temperature under 306-nm UV light (Atlanta Light Bulb Co.) in a UV Stratalinker 2400 apparatus (Stratagene). Cells were subjected to centrifugation at 4000 g for 5 min. The pellet was washed once with PBS and then solubilized with 1 mL of buffer containing 50 mM Hepes pH 7.5, 150 mM NaCl, 1%(wt/vol) n-Dodecyl-β-D-maltopyranoside (DDM, Anatrace). Each solubilized lysate was incubated at room temperature for 1 h, and clarified by centrifugation at 15000 g for 1 min. The supernatant was then transferred to a fresh tube and incubated with anti-FLAG M2 magnetic beads for 1 h. After which the beads were applied to a magnet, washed three times with 1 mL of wash buffer containing 50 mM Hepes pH 7.5, 150 mM NaCl, 0.02% (wt/vol) DDM, and eluted with 100 μL of wash buffer containing 15 μg of 3x FLAG peptide. The purified protein was then tagged with Alexa Fluor 532 using click chemistry as described above. An aliquot of each sample was subjected to 8% SDS/PAGE, and fluorescent-labeled proteins were visualized by in-gel fluorescence as described above. After scanning the gel, the proteins were transferred to nitrocellulose and blotted with mouse monoclonal anti-Flag.

SMILES | inhibition of P-X cross-linking to WT NPC1 in intact cells | inhibition of P-X cross-linking to WT NPC1 in intact cells (listed as ketoconazole) | cross-linking of P-X to WT NPC1 in intact cells (0.3 μM P-X)
CC(=O)N1CCN(c2ccc(OCC3COC(Cn4ccnc4)(c4ccc(Cl)cc4Cl)O3)cc2)CC1 (stereo not shown) [Ketoconazole, ketoconazole] | could not inhibit | does not | –
C#CCOc1ccc(C(=O)c2ccc(C(=O)OC(C)C(CC)n3ncn(-c4ccc(N5CCN(c6ccc(OCC7COC(Cn8cncn8)(c8ccc(F)cc8F)O7)cc6)CC5)cc4)c3=O)cc2)cc1 (stereo not shown) [P-X] | – | – | can easily cross-link
CCC(C)n1ncn(-c2ccc(N3CCN(c4ccc(OCC5COC(Cn6cncn6)(c6ccc(Cl)cc6Cl)O5)cc4)CC3)cc2)c1=O (stereo not shown) [Itraconazole mixture, itraconazole] | inhibits this reaction | – | –

Reference: article PMC6952396, “Structural basis for itraconazole-mediated NPC1 inhibition” (Nature Communications, 2020)
